Measured values reported in DBAASP.
Values after ≈ are worked out from the molar mass of the structure shown. One block for each compound: values may come before it.

Columns and labels:
Assay in all cases: ≥ marks a high value that may be exact or a test limit, other limits are often not marked, values filed in µg/mL are converted to µM
Bacillus subtilis 168 = system: Bacillus subtilis 168
[1] = system: Candida albicans F7-39/IDE99
Escherichia coli B = system: Escherichia coli B
[2] = system: Micrococcus luteus CCM 144
Pseudomonas aeruginosa = system: Pseudomonas aeruginosa
Staphylococcus aureus = system: Staphylococcus aureus
Bacillus cereus = system: Bacillus cereus
Enterococcus faecalis = system: Enterococcus faecalis
Escherichia coli = system: Escherichia coli
Leuconostoc lactis = system: Leuconostoc lactis
Listeria innocua = system: Listeria innocua
Micrococcus luteus = system: Micrococcus luteus
Pasteurella multocida = system: Pasteurella multocida
[3] = system: Staphylococcus epidermidis
Streptococcus uberis = system: Streptococcus uberis
[4] = system: Pseudomonas aeruginosa ATCC 27853
[5] = system: Staphylococcus aureus ATCC 43300
Botrytis cinerea = system: Botrytis cinerea
[6] = system: Candida albicans ATCC 10231
[7] = system: Escherichia coli ATCC 11775
[8] = system: Staphylococcus aureus ATCC 12600
Escherichia coli BW25113 = system: Escherichia coli BW25113
[9] = system: Bacillus subtilis ATCC 6633
[10] = system: Escherichia coli ATCC 25922
[11] = system: Klebsiella pneumoniae ATCC 10031
[12] = system: Micrococcus luteus ATCC 10240
[13] = system: Salmonella enterica subsp. enterica serovar Typhimurium ATCC 14028
[14] = system: Shigella dysenteriae ATCC 9752
[15] = system: Staphylococcus aureus ATCC 6538P
[16] = system: Staphylococcus aureus ATCC BAA-1556
[17] = system: Escherichia coli K12 MG1655

MIC (Bacillus subtilis 168): 4.7 µM (≈ 9.36 µg/mL) | MIC [1]: 8.7 µM (≈ 17.3 µg/mL) | MIC (Escherichia coli B): 2.3 µM (≈ 4.58 µg/mL) | MIC [2]: 1.7 µM (≈ 3.38 µg/mL) | MIC (Pseudomonas aeruginosa): 53.3 µM (≈ 106 µg/mL) | MIC (Staphylococcus aureus): 6 µM (≈ 11.9 µg/mL)
SMILES: CC[C@H](C)[C@H](NC(=O)[C@H](CC(C)C)NC(=O)[C@H](CCCCN)NC(=O)[C@@H](NC(=O)[C@@H](NC(=O)[C@H](Cc1cnc[nH]1)NC(=O)[C@@H]1CCCN1C(=O)[C@H](CC(C)C)NC(=O)[C@@H](NC(=O)[C@H](CCCCN)NC(=O)[C@H](C)NC(=O)[C@H](Cc1c[nH]c2ccccc12)NC(=O)[C@H](CC(C)C)NC(=O)[C@H](CO)NC(=O)[C@H](C)NC(=O)[C@H](CCSC)NC(=O)CN)C(C)C)C(C)C)C(C)C)C(=O)N[C@@H](CCCCN)C(=O)O [GMASLWAKVLPHVVKLIK]

MIC (Bacillus cereus): ≥ 46.6 µM | MIC (Enterococcus faecalis): ≥ 46.6 µM | MIC (Escherichia coli): > 46.6 µM | MIC (Leuconostoc lactis): 23.3 µM (≈ 50 µg/mL) | MIC (Listeria innocua): ≥ 46.6 µM | MIC (Micrococcus luteus): ≥ 46.6 µM | MIC (Pasteurella multocida): ≥ 46.6 µM | MIC (Staphylococcus aureus): > 46.6 µM | MIC [3]: ≥ 46.6 µM | MIC (Streptococcus uberis): ≥ 46.6 µM
SMILES: CC[C@H](C)[C@H](NC(=O)[C@H](C)NC(=O)[C@H](CCC(=O)O)NC(=O)[C@H](Cc1cnc[nH]1)NC(=O)[C@@H](N)Cc1ccccc1)C(=O)N[C@@H](C)C(=O)N1CCC[C@H]1C(=O)N[C@H](C(=O)N[C@H](C(=O)N[C@@H](Cc1cnc[nH]1)C(=O)N[C@@H](C)C(=O)N[C@@H](C)C(=O)N[C@H](C(=O)N[C@@H](CCCCN)C(=O)N[C@@H](C)C(=O)N[C@@H](CC(C)C)C(=O)N[C@H](C(=O)NCC(=O)N[C@@H](Cc1ccccc1)C(=O)N[C@@H](CC(C)C)C(=O)NCC(N)=O)C(C)C)C(C)C)C(C)C)C(C)C [FHEAIAPVVHAAVKALVGFLG]

MIC (Bacillus subtilis 168): 7 µM (≈ 12.7 µg/mL) | MIC [1]: 12 µM (≈ 21.7 µg/mL) | MIC (Escherichia coli B): 26 µM (≈ 47.1 µg/mL) | MIC [2]: 3 µM (≈ 5.44 µg/mL) | MIC [4]: 6.4 µM (≈ 11.6 µg/mL) | MIC (Pseudomonas aeruginosa): 17 µM (≈ 30.8 µg/mL) | MIC [5]: > 100 µM | MIC (Staphylococcus aureus): > 100 µM | MIC [3]: 10 µM (≈ 18.1 µg/mL)
SMILES: CC[C@H](C)[C@H](NC(=O)CN)C(=O)N[C@@H](CCSC)C(=O)N[C@@H](CO)C(=O)N[C@@H](CO)C(=O)N[C@@H](CC(C)C)C(=O)N[C@@H](CCSC)C(=O)N[C@@H](CCCCN)C(=O)N[C@@H](CCCCN)C(=O)N[C@@H](CC(C)C)C(=O)N[C@@H](CCCCN)C(=O)N[C@@H](CCCCN)C(=O)N[C@@H](Cc1cnc[nH]1)C(=O)N[C@H](C(=O)N[C@@H](C)C(=O)N[C@@H](CCCCN)C(N)=O)[C@@H](C)CC [GIMSSLMKKLKKHIAK]

MIC (Botrytis cinerea): 9.65 µM (≈ 15 µg/mL) | MIC [6]: 6.44 µM (≈ 9.99 µg/mL) | MIC [7]: ≥ 64.4 µM | MIC [8]: ≥ 64.4 µM
SMILES: CC[C@H](C)[C@H](NC(=O)[C@H](Cc1ccccc1)NC(=O)[C@H](CO)NC(=O)[C@H](CC(C)C)NC(=O)[C@@H](NC(=O)[C@H](CCCN=C(N)N)NC(=O)CN)[C@@H](C)CC)C(=O)N[C@@H](CCCCN)C(=O)NCC(=O)N[C@@H](CC(C)C)C(=O)N[C@@H](C)C(=O)N[C@@H](CCC(=O)O)C(=O)N[C@@H](Cc1cnc[nH]1)C(=O)N[C@@H](CC(C)C)C(N)=O [GRILSFIKGLAEHL]

MIC (Escherichia coli BW25113): 4 µM (≈ 9.52 µg/mL)
SMILES: CC[C@H](C)[C@H](NC(=O)[C@@H]1CCCN1C(=O)[C@H](CCCN=C(N)N)NC(=O)[C@H](CCCN=C(N)N)NC(=O)[C@H](Cc1c[nH]c2ccccc12)NC(=O)[C@@H](N)CCCN=C(N)N)C(=O)N[C@@H](CCCN=C(N)N)C(=O)N[C@@H](CCCN=C(N)N)C(=O)N[C@@H](CCCN=C(N)N)C(=O)N1CCC[C@H]1C(=O)N[C@H](C(=O)N[C@@H](CCCN=C(N)N)C(=O)N1CCC[C@H]1C(=O)N1CCC[C@H]1C(=O)N[C@@H](Cc1ccccc1)C(=O)N[C@@H](Cc1ccc(O)cc1)C(=O)N[C@@H](CCCN=C(N)N)C(=O)O)[C@@H](C)CC [RWRRPIRRRPIRPPFYR]

MIC (Escherichia coli BW25113): 4 µM (≈ 9.44 µg/mL)
SMILES: CC[C@H](C)[C@H](NC(=O)[C@@H]1CCCN1C(=O)[C@H](CCCN=C(N)N)NC(=O)[C@H](CCCN=C(N)N)NC(=O)[C@H](Cc1c[nH]c2ccccc12)NC(=O)[C@@H](N)CCCN=C(N)N)C(=O)N[C@@H](CCCN=C(N)N)C(=O)N[C@@H](CCCN=C(N)N)C(=O)N[C@@H](CCCN=C(N)N)C(=O)N1CCC[C@H]1C(=O)N[C@H](C(=O)N[C@@H](CCCN=C(N)N)C(=O)N1CCC[C@H]1C(=O)N1CCC[C@H]1C(=O)N[C@@H](Cc1c[nH]c2ccccc12)C(=O)N[C@@H](Cc1ccc(O)cc1)C(=O)N1CCC[C@H]1C(=O)O)[C@@H](C)CC [RWRRPIRRRPIRPPWYP]

MIC (Bacillus subtilis 168): 2 µM (≈ 2.79 µg/mL) | MIC [1]: 6 µM (≈ 8.37 µg/mL) | MIC (Escherichia coli B): 4.3 µM (≈ 6 µg/mL) | MIC [2]: 2.7 µM (≈ 3.77 µg/mL) | MIC (Pseudomonas aeruginosa): 43.3 µM (≈ 60.4 µg/mL) | MIC (Staphylococcus aureus): 7.3 µM (≈ 10.2 µg/mL)
SMILES: CC[C@H](C)[C@H](NC(=O)[C@H](C)NC(=O)CNC(=O)[C@H](Cc1c[nH]c2ccccc12)NC(=O)[C@H](CC(N)=O)NC(=O)[C@@H](N)CC(C)C)C(=O)N[C@@H](CC(C)C)C(=O)N[C@@H](CCCCN)C(=O)N[C@@H](CCCCN)C(=O)N[C@H](C(=O)N[C@H](C(=O)N[C@@H](CCCCN)C(N)=O)[C@@H](C)CC)[C@@H](C)CC [LNWGAILKKIIK]

MIC [9]: ≥ 212 µM | MIC [10]: > 212 µM | MIC [11]: ≥ 212 µM | MIC [12]: ≥ 106 µM | MIC [4]: > 212 µM | MIC [13]: > 212 µM | MIC [14]: ≥ 212 µM | MIC [15]: ≥ 212 µM
SMILES: CC(C)C[C@H](NC(=O)[C@H](Cc1c[nH]c2ccccc12)NC(=O)[C@H](CCCCN)NC(=O)[C@H](CCCCN)NC(=O)[C@@H](N)CC(C)C)C(=O)N[C@@H](CCCCN)C(=O)N[C@@H](CCCCN)C(N)=O [LKKWLKK]

MIC (Botrytis cinerea): 0.334 µM (≈ 0.5 µg/mL) | MIC [6]: 66.8 µM (≈ 99.9 µg/mL) | MIC [7]: ≥ 66.8 µM | MIC [8]: ≥ 66.8 µM
SMILES: CC[C@H](C)[C@H](NC(=O)CNC(=O)[C@H](CC(C)C)NC(=O)[C@@H](NC(=O)[C@@H]1CCCN1C(=O)[C@@H](N)CCC(=O)O)[C@@H](C)CC)C(=O)N[C@H](C(=O)N[C@H](C(=O)N[C@@H](CO)C(=O)N[C@@H](CC(C)C)C(=O)N[C@@H](CC(C)C)C(=O)N[C@@H](CCCCN)C(=O)N[C@@H](CO)C(=O)N[C@@H](CC(C)C)C(N)=O)[C@@H](C)O)[C@@H](C)CC [EPILGIITSLLKSL]

MIC [16]: 3.12 µM (≈ 4.74 µg/mL)
SMILES: CC(C)C[C@H](NC(=O)[C@H](Cc1c[nH]c2ccccc12)NC(=O)[C@H](Cc1c[nH]c2ccccc12)NC(=O)[C@H](CC(C)C)NC(=O)[C@H](Cc1c[nH]c2ccccc12)NC(=O)[C@@H](N)Cc1c[nH]c2ccccc12)C(=O)N[C@@H](Cc1c[nH]c2ccccc12)C(=O)N[C@@H](Cc1c[nH]c2ccccc12)C(=O)N[C@@H](CCCN=C(N)N)C(N)=O [WWLWWLWWR]

MIC [17]: ≥ 71.1 µM
SMILES: CC[C@H](C)[C@H](NC(=O)[C@H](CC(C)C)NC(=O)[C@H](Cc1ccc(O)cc1)NC(=O)[C@H](CC(C)C)NC(=O)[C@H](CC(C)C)NC(=O)[C@H](CC(C)C)NC(=O)[C@H](CCCN=C(N)N)NC(=O)[C@H](CC(C)C)NC(=O)[C@H](CCCN=C(N)N)NC(=O)[C@H](C)NC(=O)[C@H](C)NC(=O)[C@H](C)N)C(=O)N[C@H](C(=O)N[C@@H](CCCN=C(N)N)C(=O)N[C@@H](CCCN=C(N)N)C(=O)O)[C@@H](C)O [AAARLRLLLYLITRR]
